Measurements as given in ChEMBL document CHEMBL1126482, “Novel Y2-selective, reduced-size agonists of neuropeptide Y” (Bioorg Med Chem Lett, 1993).
Square brackets hold non-standard residues; d marks the D form. Peptide text beside a SMILES is read from it. Cha = N[C@@H](CC1CCCCC1)C(=O)O

Tests used:
[1] = target: T1, Neuropeptide Y receptor type 2 (Homo sapiens, UniProt P49146); assay: Compound was evaluated for its inhibitory activity against human neuropeptide Y2 receptor expressing LN319 cells; assay type: cell-based
T1 sequence (P49146 whole entry): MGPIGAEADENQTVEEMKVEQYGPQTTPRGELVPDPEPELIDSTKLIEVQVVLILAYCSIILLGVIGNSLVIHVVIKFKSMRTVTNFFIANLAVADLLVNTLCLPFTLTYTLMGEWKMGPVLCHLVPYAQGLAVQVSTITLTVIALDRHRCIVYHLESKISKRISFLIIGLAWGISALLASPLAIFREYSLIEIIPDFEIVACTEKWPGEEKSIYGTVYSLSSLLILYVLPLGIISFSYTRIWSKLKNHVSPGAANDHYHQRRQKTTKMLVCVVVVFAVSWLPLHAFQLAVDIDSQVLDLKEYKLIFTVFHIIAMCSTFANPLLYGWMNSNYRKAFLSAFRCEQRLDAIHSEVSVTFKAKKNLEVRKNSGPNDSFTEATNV

[2] = target: T2, Neuropeptide Y receptor type 1 (Homo sapiens, UniProt P25929); assay: Compound was evaluated for its inhibitory activity against human neuropeptide Y1 receptor expressing SK-N-MC cells; assay type: cell-based
T2 sequence (P25929 whole entry): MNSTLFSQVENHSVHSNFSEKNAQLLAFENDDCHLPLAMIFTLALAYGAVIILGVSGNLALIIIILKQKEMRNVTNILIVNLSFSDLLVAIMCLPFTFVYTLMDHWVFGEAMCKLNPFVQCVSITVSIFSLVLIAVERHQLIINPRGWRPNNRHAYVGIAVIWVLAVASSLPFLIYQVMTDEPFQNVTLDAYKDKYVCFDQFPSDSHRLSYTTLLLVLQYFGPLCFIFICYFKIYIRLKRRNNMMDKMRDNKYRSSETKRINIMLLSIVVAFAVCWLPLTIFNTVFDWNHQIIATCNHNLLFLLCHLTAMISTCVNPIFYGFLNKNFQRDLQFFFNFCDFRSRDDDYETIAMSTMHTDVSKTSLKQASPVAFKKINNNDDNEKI

Rattus norvegicus = species: Rattus norvegicus; assay: Compound was evaluated for its ability to inhibit electrically evoked rat vas deferens contractions; assay type: functional

IC50 [1] | IC50 ([2]; sk-n-mc) | IC50 (Rattus norvegicus) | IC50 [2] | Compound
0.008 µM | 44 µM |  |  | CC[C@H](C)[C@H](NC(=O)[C@H](Cc1ccc(O)cc1)NC(=O)[C@H](Cc1c[nH]cn1)NC(=O)[C@H](CCCN=C(N)N)NC(C)=O)C(=O)N[C@@H](CC(N)=O)C(=O)N[C@@H](CC1CCCCC1)C(=O)N[C@H](C(=O)N[C@H](C(=O)N[C@@H](CCCN=C(N)N)C(=O)N[C@@H](CCC(N)=O)C(=O)N[C@@H](CCCN=C(N)N)C(=O)N[C@@H](Cc1ccc(O)cc1)C(=O)O)[C@@H](C)O)[C@@H](C)CC (Ac-RHYIN[Cha]ITRQRY-OH)
0.003 µM | 26 µM |  |  | CC[C@H](C)[C@H](NC(=O)[C@H](Cc1ccc(O)cc1)NC(=O)[C@H](Cc1c[nH]cn1)NC(=O)[C@H](CCCN=C(N)N)NC(C)=O)C(=O)N[C@@H](CC(N)=O)C(=O)N[C@@H](CC1CCCCC1)C(=O)N[C@@H](CC1CCCCC1)C(=O)N[C@H](C(=O)N[C@@H](CCCN=C(N)N)C(=O)N[C@@H](CCC(N)=O)C(=O)N[C@@H](CCCN=C(N)N)C(=O)N[C@@H](Cc1ccc(O)cc1)C(=O)O)[C@@H](C)O (Ac-RHYIN[Cha][Cha]TRQRY-OH)
0.005 µM | 0.039 µM |  |  | CC[C@H](C)[C@H](NC(=O)[C@H](Cc1ccc(O)cc1)NC(=O)[C@H](Cc1c[nH]cn1)NC(=O)[C@H](CCCN=C(N)N)NC(C)=O)C(=O)N[C@@H](CC(N)=O)C(=O)N[C@@H](CC(C)C)C(=O)N[C@@H](CC1CCCCC1)C(=O)N[C@H](C(=O)N[C@@H](CCCN=C(N)N)C(=O)N[C@@H](CCC(N)=O)C(=O)N[C@@H](CCCN=C(N)N)C(=O)N[C@@H](Cc1ccc(O)cc1)C(=O)O)[C@@H](C)O (Ac-RHYINL[Cha]TRQRY-OH)
 |  | 4.5 µM | 35 µM | Ac-RHYINLITRQRY-OH
